Results published in ChEMBL document CHEMBL5233264, “Targeting MYC: From understanding its biology to drug discovery” (Eur J Med Chem, 2021).

Assays:
[1] = In vivo inhibition of BRD4 in human MV4-11 cells xenografted in mouse tumor model; assay type: functional, organism-based
Homo sapiens [2] = organism: Homo sapiens; test: Binding affinity to human telomeric repeat F21T assessed as change in melting temperature at 1 uM by high-throughput FRET melting assay
Homo sapiens [3] = organism: Homo sapiens; test: Binding affinity to c-MYC promoter G4 sequences FmycT (unknown origin) assessed as change in melting temperature at 1 uM by high-throughput FRET melting assay
Homo sapiens [4] = organism: Homo sapiens; test: Binding affinity to double-stranded DNA FdxT (unknown origin) assessed as change in melting temperature at 1 uM by high-throughput FRET melting assay
HL-60 = test: Cytotoxicity against human HL-60 cells measured after 72 hrs by MTT assay; assay type: functional, cell-based; details: HL-60, 72 h
[5] = target: Bromodomain-containing protein 4 (Homo sapiens, UniProt O60885); test: Inhibition of BRD4 (unknown origin)
Quadruplex DNA [6] = test: Binding affinity to MYC G4-quadruplex DNA (unknown origin) assessed as dissociation constant; assay type: nucleic-acid assay
[7] = Growth inhibition of human Burkitts lymphoma cell; assay type: functional, cell-based
[8] = Binding affinity to MYC bHLH Zip (unknown origin) assessed as dissociation constant by microscale thermophoresis assay; set-up: species or system Homo sapiens
4T1 = test: Anticancer activity against mouse 4T1 cells; assay type: functional, cell-based
HepG2 = test: Anticancer activity against human HepG2 cells; assay type: functional, cell-based
Quadruplex DNA [9] = test: Binding affinity to human MYC G4 DNA sequence; assay type: nucleic-acid assay
Calf thymus DNA = test: Binding affinity to calf thymus DNA sequence; assay type: nucleic-acid assay, Bos taurus

With `Cc1noc2c1-c1ccccc1C(c1ccc(Cl)cc1)=N[C@H]2CC(N)=O` [PELABRESIB] the IC50 [1] was 120 nM.

With `c1cc2ccc3ccc4nc3c2nc1CNCCCCCCCNC4` the ΔTm (Homo sapiens [2]) was 9.2 °C, the ΔTm (Homo sapiens [3]) was 3.6 °C and the ΔTm (Homo sapiens [4]) was 9.2 °C.

`CCCCOC(=O)CCN1C(=O)S/C(=C\c2ccc(CC)cc2)C1=O` showed an IC50 (HL-60) of 5000 nM.

`Oc1ccc(Cl)c2cccnc12` [CLOXYQUIN] gave an IC50 [5] of 6470 nM.

For `C[n+]1cc(NC(=O)c2ccc3ccc4ccc(C(=O)Nc5cc6ccccc6[n+](C)c5)nc4c3n2)cc2ccccc21`, the ΔTm (Homo sapiens [2]) was 17.3 °C, the ΔTm (Homo sapiens [3]) was 12 °C and the ΔTm (Homo sapiens [4]) was 0 °C.

For `CCn1cc(C(=O)O)c(=O)c2cc(F)c(N3CCNCC3)cc21` [NORFLOXACIN], the IC50 [5] was 980 nM.

Molecule `O=c1oc2c3c4c(cc2cc1-c1nc2ccccc2s1)CCCN4CCC3` has a Kd (Quadruplex DNA [6]) of 2000 nM.

In the case of `CCOc1ccc2nc3cc(/N=N/c4ccc(N)cc4N)ccc3c(N)c2c1`, the IC50 [7] is reported as 500 nM and the Kd [8] is reported as 2000 nM.

Molecule `CN1CCN(c2ccc(-c3nc4cc(F)c(F)cc4nc3-c3ccc(N4CCN(C)CC4)cc3)cc2)CC1` has a Kd (Quadruplex DNA [6]) of 1300 nM and an IC50 (4T1) of 700 nM.

For `CN1CCN(c2ccc(-c3nc(-c4nc5ccccc5s4)[nH]c3-c3ccc(N4CCN(C)CC4)cc3)cc2)CC1`, the IC50 (HepG2) was 4500 nM, the Kd (Quadruplex DNA [6]) was 2000 nM and the IC50 (4T1) was 3900 nM.

For `CN(C)c1ccc2nc3ccc(N(C)C)cc3[s+]c2c1` [METHYLENE BLUE ANHYDROUS], the Kd (Quadruplex DNA [9]) was 200 nM, the Kd (Calf thymus DNA) was 200 nM and the IC50 (HepG2) was 6000 nM.

In the case of `COC(=O)c1ccc(Nc2ccc([N+](=O)[O-])c3nonc23)c(-c2ccc(C)cc2)c1`, the IC50 (HL-60) is reported as 23000 nM.

Molecule `CCS(=O)(=O)Nc1ccc(Oc2ccc(F)cc2F)c(-c2cn(C)c(=O)c3[nH]ccc23)c1` [MIVEBRESIB] has an IC50 [5] of 3 nM.

For `CN(CCc1ccc(Br)cc1)c1ccc2nc3ccc(N(C)CCc4ccc(Br)cc4)cc3[s+]c2c1`, the Kd (Quadruplex DNA [9]) was 70 nM, the Kd (Calf thymus DNA) was 11000 nM and the IC50 (HepG2) was 1000 nM.

`O=[N+]([O-])c1ccc(Nc2ccccc2-c2ccccc2)c2nonc12` showed an IC50 (HL-60) of 23000 nM.
